Laboratory results taken from ChEMBL document CHEMBL1143098, “Design and synthesis of 6-amino-1,4-oxazepane-3,5-dione derivatives as novel broad spectrum anticonvulsants” (2008).

Legend:
Mus musculus [1] = species: Mus musculus; assay: Anticonvulsant activity against pentylenetetrazole-induced seizure in ICR mouse after 30 mins; assay type: functional; conditions: 0.5 h
Mus musculus [2] = species: Mus musculus; assay: Anticonvulsant activity in ICR mouse after 30 mins by MES test; assay type: functional; conditions: 0.5 h

| SMILES | ED50 (Mus musculus [1]) | ED50 (Mus musculus [2]) |
| --- | --- | --- |
| O=C(NC1COCC(=O)N(Cc2ccc(F)cc2)C1=O)OCc1ccccc1 (stereo unspecified) | 53.9 mg/kg | > 100 mg/kg |
| O=C(NC1COCC(=O)N(Cc2ccco2)C1=O)OCc1ccccc1 (stereo unspecified) | 64.1 mg/kg | > 100 mg/kg |
| O=C(NC1COCC(=O)N(Cc2ccccc2)C1=O)OCc1ccccc1 (stereo unspecified) | 64.1 mg/kg | > 100 mg/kg |
| CCCCCCN1C(=O)COCC(NC(=O)OCc2ccccc2)C1=O (stereo unspecified) | 35.6 mg/kg | 87.5 mg/kg |
| CC(C)CN1C(=O)COCC(NC(=O)OCc2ccccc2)C1=O (stereo unspecified) | > 100 mg/kg | > 100 mg/kg |
| O=C(NC1COCC(=O)N(C2CC2)C1=O)OCc1ccccc1 (stereo unspecified) | 27 mg/kg | 87.5 mg/kg |
| CN1C(=O)COCC(NC(=O)OCc2ccccc2)C1=O (stereo unspecified) | 41 mg/kg | 68.8 mg/kg |
| CCCN1C(=O)COCC(NC(=O)OCc2ccccc2)C1=O (stereo unspecified) | > 100 mg/kg | > 100 mg/kg |
| O=C1COCC(NC(=O)OCc2ccccc2)C(=O)N1 (stereo unspecified) | 55.1 mg/kg | 81.2 mg/kg |
| C=CCN1C(=O)COCC(NC(=O)OCc2ccccc2)C1=O (stereo unspecified) | 37.1 mg/kg | 70.3 mg/kg |
| CCCCN1C(=O)COCC(NC(=O)OCc2ccccc2)C1=O (stereo unspecified) | 34.8 mg/kg | 93.8 mg/kg |
| O=C(NC1COCC(=O)N(O)C1=O)OCc1ccccc1 (stereo unspecified) | 96.9 mg/kg | 93.8 mg/kg |
| CCCC(CCC)C(=O)O [VALPROIC ACID] | 149 mg/kg | 271 mg/kg |
